This note sets out measurements from publication PMC11630551, “In silico screening of protein-binding peptides with an application to developing peptide inhibitors against antibiotic resistance” (PNAS Nexus, 2024).

Entries after “also recorded” stand apart in the source; their conditions may differ.

The first series deals with T1, TEM-1 β-lactamase (Escherichia coli, UniProt P62593).
T1 construct: host or cells: E. coli BL21 (DE3)
T1 sequence (P62593 24-286 limits assumed): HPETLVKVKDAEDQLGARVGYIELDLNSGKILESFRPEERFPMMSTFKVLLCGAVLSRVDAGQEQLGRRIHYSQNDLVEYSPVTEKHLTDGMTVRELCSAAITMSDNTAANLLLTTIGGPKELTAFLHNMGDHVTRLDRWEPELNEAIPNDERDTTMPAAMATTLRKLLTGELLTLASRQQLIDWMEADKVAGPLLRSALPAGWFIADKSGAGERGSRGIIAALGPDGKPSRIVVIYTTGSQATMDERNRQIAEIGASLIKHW
Test: not given
Details: not given
It counts as biochemical.
Regarding ARDATCRRWG [TF3], the “change of β-lactamase activity of TEM-1 at peptide screening concentration” value was “increased the β-lactamase activity; also recorded: did not exhibit significant inhibition”.
On the same count and under the same terms, then ASRAEVDAAAKGAA [TF8], with “did not exhibit significant inhibition”; and EYGDAWHDAG [TF4], with “did not exhibit significant inhibition”; and RDSVGAASVN [TF9], with “did not exhibit significant inhibition”.
The same measure, in the same setting: then AKYFEQASYG [TF6], with “increased the β-lactamase activity; also recorded: did not exhibit significant inhibition”.

System in the next series: not listed separately
Nature of the series: Solubility of synthesized peptides. Particulars: excluded from assay experiments.
For the sequence ESYHGMLACVIAG [TF10], the solubility result is “poor solubility”.
